# Measurements published in PubChem BioAssay (NCI).
# Several values for one entry are separate records, joined by “and”; a condition that tells them apart may be missing. Equal values may be shown once.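 Briefly, cells in 96-well plates were exposed to five compound concentrations for 48 h, and endpoints were estimated by linear interpolation. GI50 = concentration required for 50% inhibition of growth. TGI: total growth inhibition.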
# Columns and labels:
# Experiment in all cases: DTP human tumour cell line panel, 48 h
# A549 NSCLC = system: A549 NSCLC
# HS 578T breast = system: HS 578T breast
# K-562 leukemia = system: K-562 leukemia
# MDA-MB-231 breast = system: MDA-MB-231 breast
# MDA-MB-435 = system: MDA-MB-435
# NCI-H460 lung = system: NCI-H460 lung
# PC-3 prostate = system: PC-3 prostate
# SF-268 CNS = system: SF-268 CNS
# SK-MEL-28 melanoma = system: SK-MEL-28 melanoma
# U251 CNS = system: U251 CNS
Compound,GI50 (A549 NSCLC) [µM],TGI (A549 NSCLC),GI50 (HS 578T breast) [µM],TGI (HS 578T breast) [µM],GI50 (K-562 leukemia),TGI (K-562 leukemia),GI50 (MDA-MB-231 breast) [µM],TGI (MDA-MB-231 breast) [µM],GI50 (MDA-MB-435) [µM],TGI (MDA-MB-435) [µM],GI50 (NCI-H460 lung),TGI (NCI-H460 lung),GI50 (PC-3 prostate) [µM],TGI (PC-3 prostate) [µM],GI50 (SF-268 CNS) [µM],TGI (SF-268 CNS) [µM],GI50 (SK-MEL-28 melanoma),TGI (SK-MEL-28 melanoma),GI50 (U251 CNS) [µM],TGI (U251 CNS) [µM]
CCCCCCCCCCCCCCCC(=O)OCC1OC(OCCCC)[C@H](O[C@@H]2OC(C)C(OC(=O)CCC)C(O)C2O)C(O)C1O (stereo not given in full),17.4,34 µM,16.2,44.2,16.8 µM,31.6 µM,14.4,30.2,13.3,27.3,22.4 µM,57.8 µM,15.4,30.5,18.4,42.4,16.5 µM,32.1 µM,18.8,38.8
Nc1ncc(-c2ccc3ncnc(N4CCc5cc(F)c(Cl)cc54)c3c2)cc1C=O,0.949,12.5 µM,0.369,3.06,2.82 µM,> 100 µM,1.8,> 100,0.909,6.97,0.814 µM,> 100 µM,0.824,> 100,1.02,> 100,1.61 µM,> 100 µM,2.7,> 100
CCN1C[C@@H](C)n2c(c(O)c3c(=O)n(Cc4ccc(F)c(Cl)c4)nc(C(=O)NC)c32)C1=O,3.14,> 100 µM,2.48,7.42,3.39 µM,> 100 µM,2.64,7.36,3.21,> 100,3.15 µM,10.7 µM,3.27,32,3.4,39.8,2.69 µM,7.17 µM,–,–
Cn1ccc(S(=O)(=O)N2CCC[C@H](Nc3nccc(-c4c(-c5cccc(O)c5)nc5occn45)n3)C2)n1,13.2,42.9 µM,7.57,93.5,13.9 µM,> 100 µM,6.23,> 66.6,0.329,29.3,15.5 µM,59.8 µM,19.4,> 100,21.4,> 100,0.0938 µM,20.5 µM,22.3,> 100
CC[C@@]1(O)C(=O)OCc2c1cc1n(c2=O)Cc2cc3cc(O)ccc3nc2-1,0.0813,3.93 µM and 2.32 µM,–,8.52,0.0419 µM and 0.0427 µM,24.7 µM and > 46.5 µM,–,> 100,–,1.09,0.0172 µM and < 0.0104 µM,0.112 µM and 1.07 µM,–,> 100,0.0192,–,0.166 µM and 0.264 µM,10 µM and > 38.9 µM,–,0.0327
C/C(=N\O)C1CC(CC(=O)O)C1(C)C (stereo not given),–,> 100 µM,–,> 100,–,> 100 µM,–,> 100,–,> 100,–,> 100 µM,–,> 100,–,> 100,–,> 100 µM,–,> 100
Nc1nc(N)c2c(Cl)c(CNc3ccc(Cl)c(Cl)c3)ccc2n1,–,14.5 µM,–,11.9,–,2.97 µM,–,7.26,–,17.5,–,11.4 µM,–,12.7,–,15.7,–,18.7 µM,–,11.2
CC1(C)CCC2(C(=O)O)C(O)CC3(C)C(=CCC4C5(C)CCC(OC6OCC(O)C(O)C6OC6OCC(O)C(O)C6OC6OCC(O)C(OC7OC(CO)C(O)C(O)C7O)C6O)C(C)(C)C5CCC43C)C2C1 (stereo not given),–,> 100 µM,–,> 100,–,70.6 µM,–,> 100,–,93,–,> 100 µM,–,> 100,–,64,–,> 100 µM,–,> 100
O=C1NC(=NCCc2ccccc2F)S/C1=C\c1ccc2ncccc2c1,5.39,> 25 µM,7.05,> 23.4,2.78 µM,> 25 µM,16.2,> 25,1.57,> 16.8,6.57 µM,> 25 µM,13.4,> 25,7.76,> 25,11.7 µM,> 25 µM,4.69,> 25
Cc1ncnc2c1ccn2[C@@H]1C[C@H](Oc2cc(C(F)F)c(F)c3c2CNCC3)[C@@H](O)[C@H]1O,> 100,> 100 µM,> 100,> 100,> 100 µM,> 100 µM,> 100,> 100,> 100,> 100,> 100 µM,> 100 µM,> 100,> 100,> 100,> 100,> 100 µM,> 100 µM,> 100,> 100
CCN(CC)CCOc1ccc2c(-c3ccccc3)c(-c3ccc(OC)cc3)c(=O)oc2c1,7.76,22 µM,3.19,15.5,2.55 µM,10.5 µM,4.91,17.5,3.3,10.6,2.5 µM,6.06 µM,4.19,18.3,8.4,21.7,1.96 µM,4.38 µM,4.51,20.9
N=C1C(c2nc3ccccc3c(=O)[nH]2)=C(O)CN1c1cccc(Cl)c1,5.36,> 100 µM,2.79,12.3,1.39 µM,> 100 µM,> 100,> 100,0.948,3.8,3.72 µM,> 85.6 µM,2.69,> 29.5,8.78,> 100,> 22.3 µM,> 100 µM,2.22,> 50
Cn1cc(Nc2nccc(-c3ccc4c(c3)CN(C3COC3)CC[C@H]4NC(=O)c3cn(C(C)(C)C)nn3)n2)cn1,86.8,> 100 µM,29.7,> 100,28 µM,> 100 µM,77.3,> 100,42.3,> 100,85.9 µM,> 100 µM,> 100,> 100,> 100,> 100,46.9 µM,> 100 µM,> 100,> 100
COC(=O)COc1ccccc1/C=C1/N=C(c2ccccc2)N(c2c(C)n(C)n(-c3ccccc3)c2=O)C1=O,> 100,> 100 µM,> 100,> 100,75.1 µM,> 100 µM,> 100,> 100,> 100,> 100,> 100 µM,> 100 µM,> 100,> 100,> 100,> 100,> 100 µM,> 100 µM,> 100,> 100
COC(=O)C1C(=O)C(C(=O)OC)C2CCC1N2C (stereo not given),–,> 100 µM,–,> 100,–,> 100 µM,–,> 100,–,> 79.3,–,> 100 µM,–,> 100,–,> 100,–,> 100 µM,–,> 100
CCN(CC)CCOc1ccc(/C(=C(\C)Cc2ccc(OC)cc2)c2ccc(O)cc2)cc1,1.83,3.56 µM,1.69,4.22,1.37 µM,3.99 µM,1.71,3.26,1.68,3.15,1.86 µM,3.68 µM,1.54,3.26,1.86,4.33,1.79 µM,3.33 µM,1.63,3.09
CC(=O)NC(CCc1ccc(Cl)c(Cl)c1)c1cccc(O)c(=O)c1 (stereo not given),0.527,11.5 µM,2.61,32.5,0.653 µM,29.1 µM,0.709,15.5,1.07,18.9,0.407 µM,11.8 µM,0.78,24.7,0.517,14.7,1.07 µM,12.3 µM,0.428,11.5
CN1CCC(=C(c2ccc(Cl)cc2)c2ccccn2)CC1,> 100,> 100 µM,44.9,> 100,74.7 µM,> 100 µM,34.5,> 100,40.7,> 100,> 100 µM,> 100 µM,80.5,> 100,> 100,> 100,86.1 µM,> 100 µM,> 100,> 100
Oc1ccc(/C=N/NC(=S)Nc2ccccc2)nc1,2.33,26.3 µM,9.84,> 100,3.72 µM,> 100 µM,0.729,> 100,2.19,> 100,2.77 µM,> 100 µM,0.706,> 100,0.969,> 100,3.14 µM,> 100 µM,0.65,81.8
N#C/C(=C\c1ccc(O)c(O)c1)C(=O)NCc1cccc(C(F)(F)F)c1,15.1,90 µM,12,47.3,21.3 µM,> 100 µM,5.82,29,4.28,18,6.14 µM,31 µM,19.7,> 100,13.7,42.1,21.6 µM,72.6 µM,6.22,38.4
N#Cc1ncc(-c2ccc(C(F)(F)F)cc2)c(NC2CCCCCC2)n1,47.4,> 100 µM,22.4,> 100,9.03 µM,> 100 µM,6.56,> 100,29.1,> 100,11.1 µM,> 100 µM,5.67,> 100,27.7,> 100,71.5 µM,> 100 µM,–,–
Cc1c(Br)c(Br)c2c3c1nc(N1CCNCC1)n3CCC2,1.87,4.01 µM,2.45,6.5,2.14 µM,5.49 µM,1.36,2.74,1.73,3.22,1.7 µM,3.22 µM,1.04,2.25,2.12,4.78,1.79 µM,3.39 µM,1.86,4.11
CCNCCS(=O)(=O)NC[C@@]1(c2ccccc2)SC(NC(=O)C(C)(C)C)=NN1C(=O)C(C)(C)C,< 0.01,> 100 µM,< 0.01,> 100,< 0.01 µM,> 100 µM,< 0.01,28.1,< 0.01,< 0.01,< 0.01 µM,> 41.9 µM,< 0.01,> 100,< 0.01,> 100,11.3 µM,> 100 µM,< 0.01,> 100
O=C(NNC1=NS(=O)(=O)c2ccccc2N1c1ccccc1)c1cnccn1,> 100,> 100 µM,> 100,> 100,> 100 µM,> 100 µM,> 100,> 100,> 100,> 100,> 100 µM,> 100 µM,> 100,> 100,> 100,> 100,> 100 µM,> 100 µM,> 100,> 100
CC(C)(Oc1cccc(N2CCC[C@@H](C(=O)N(Cc3ccc(-c4cn[nH]c4)cc3)C3CC3)C2)c1)C(=O)N1CCNCC1,14.1,32.2 µM,5.14,29.4,3.5 µM,18.4 µM,14.8,29.7,13.8,27.2,12.3 µM,27.2 µM,13.6,39.1,10.7,24.7,13.1 µM,26.1 µM,12.6,26.3
CN(C)Cc1ccc(O)c(CN(C)C)n1,–,> 100 µM,–,> 100,–,> 100 µM,–,> 100,–,> 100,–,> 100 µM,–,> 100,–,> 100,–,> 100 µM,–,> 100
